These results are taken from patent US9744196B2, “Composition for parenteral administration, method for producing and method use thereof” (N2 PHARMACEUTICALS LTD, priority 2013, dated 2017).

The subject of this assay is white rats. Put plainly: Adaptogenic (antistress) properties, shaker-induced transport stress. It is filed as in vivo. How it is done: Tests were conducted on 84 white rats and 36 white mice using pharmacological, haematological, biochemical and immunologic assays known in the art. Upon studying beneficial effects of composition A on the organisms of laboratory animals, certain haematological and immunobiological indices of the test and control animals were considered. Haematological parameters were evaluated in blood specimens by methods known in the art: white blood cells count per 1 cubic millimeter using Gorjaev's chamber. The following immunobiological indices were counted: blood protein content, glucose, phagocytosis and a number of other parameters, characterizing condition of an organism. The total protein content in blood serum was measured by refractometric analysis. Refractive index of blood serum depends mainly on the amount of proteins.
Glucose concentration was measured using the ortho-toluidine method based on staining of glucose compound with ortho-toluidine in acetic acid solution, the intensity of said being proportional to the glucose concentration.
The test was conducted on 12 rats, 4 animals being in each of three groups. Stress in experimental white rats was induced using a shaking machine simulating transport (physical) stress. The box with animals was placed onto the shaker and held atop the operating machine for 30-40 min. The most informative parameters, characterizing the onset and development of stress response (stress mediators): glucose, total protein and leukocytes (WBC) levels, were measured in blood of the white rats.
Composition A was administered to the animals of the 1st group intramuscularly 3 days previous to stress induction in a dose of 0.2 ml. 2.5% solution of neuroleptic agent aminazin in a dose of 0.5 mg per capita was administered to the animals of the 2nd group. A normal saline solution was administered intramuscularly to the animals of the 3rd (control) group. Rats' blood examination to estimate the above parameters was performed 1 h and 24 h after stress induction.

Where [1] appears, read: 24 hours after stress induction.

For `CN(C)CCCN1c2ccccc2Sc2ccc(Cl)cc21` [Aminazin, aminazin], the Glucose amounted to 6.46 ± 0.45 mmol/L (1 hour after stress induction); 6.46 ± 0.45 mmol/L (1 hour after stress induction, listed as aminazin); 6.25 ± 0.3 mmol/L under setting [1]; 6.25 ± 0.3 mmol/L (24 hours after stress induction, listed as aminazin). In addition, the “Leukocytes (WBC)” value is, setting by setting: (1 hour after stress induction) 4.3 ± 0.4 10^3/uL; under setting [1], 6.1 ± 0.3 10^3/uL. Moreover, the Total protein runs as follows: (1 hour after stress induction) 66.0 ± 0.5 g/L; under setting [1], 72.4 ± 1.6 g/L.
